Results: US20250281498A1, “FUSED AMINO PYRIMIDINE COMPOUNDS FOR TREATMENT OF SYNUCLEINOPATHIES AND TDP-43 PROTEINOPATHIES” (Ovid Therapeutics Inc., priority 2024, published 2025)

What was measured:
[1] = tested on: panel of 144 protein kinases; assay: protein kinase panel (SelectScreen; Thermofisher); format: biochemical; conditions: panel incl. protein kinase C isoforms, OSR1, SPAK (STK39), WNK
Method: Aliquots of HEK-293 cells expressing KCC2 were exposed to 30 μM SSA, heated from 37-55° C. The remaining level of soluble native KCC2 at each temperature was measured by immunoblotting and normalized to the level seen at 37° C. which was given a value of 1. […] This panel included protein kinase C isoforms, OSR1, SPAK (STK39) and with-no-lysine kinases (WNK), all of which phosphorylate KCC2 on multiple residues to indirectly modify its activity (Kahle et al., 2013, supra; Smalley et al., 2020, supra).

KCC2 = target: T1, KCC2 (Homo sapiens, UniProt Q9H2X9); assay: biotinylation, plasma membrane level of KCC2 in HEK-293 cells; format: cell-based; conditions: 15 min
T1 construct: expressed in transfected cells; host or cells: HEK-293 (ATCC CRL-1573)
T1 sequence (Q9H2X9 1-1116 isoform Q9H2X9-2): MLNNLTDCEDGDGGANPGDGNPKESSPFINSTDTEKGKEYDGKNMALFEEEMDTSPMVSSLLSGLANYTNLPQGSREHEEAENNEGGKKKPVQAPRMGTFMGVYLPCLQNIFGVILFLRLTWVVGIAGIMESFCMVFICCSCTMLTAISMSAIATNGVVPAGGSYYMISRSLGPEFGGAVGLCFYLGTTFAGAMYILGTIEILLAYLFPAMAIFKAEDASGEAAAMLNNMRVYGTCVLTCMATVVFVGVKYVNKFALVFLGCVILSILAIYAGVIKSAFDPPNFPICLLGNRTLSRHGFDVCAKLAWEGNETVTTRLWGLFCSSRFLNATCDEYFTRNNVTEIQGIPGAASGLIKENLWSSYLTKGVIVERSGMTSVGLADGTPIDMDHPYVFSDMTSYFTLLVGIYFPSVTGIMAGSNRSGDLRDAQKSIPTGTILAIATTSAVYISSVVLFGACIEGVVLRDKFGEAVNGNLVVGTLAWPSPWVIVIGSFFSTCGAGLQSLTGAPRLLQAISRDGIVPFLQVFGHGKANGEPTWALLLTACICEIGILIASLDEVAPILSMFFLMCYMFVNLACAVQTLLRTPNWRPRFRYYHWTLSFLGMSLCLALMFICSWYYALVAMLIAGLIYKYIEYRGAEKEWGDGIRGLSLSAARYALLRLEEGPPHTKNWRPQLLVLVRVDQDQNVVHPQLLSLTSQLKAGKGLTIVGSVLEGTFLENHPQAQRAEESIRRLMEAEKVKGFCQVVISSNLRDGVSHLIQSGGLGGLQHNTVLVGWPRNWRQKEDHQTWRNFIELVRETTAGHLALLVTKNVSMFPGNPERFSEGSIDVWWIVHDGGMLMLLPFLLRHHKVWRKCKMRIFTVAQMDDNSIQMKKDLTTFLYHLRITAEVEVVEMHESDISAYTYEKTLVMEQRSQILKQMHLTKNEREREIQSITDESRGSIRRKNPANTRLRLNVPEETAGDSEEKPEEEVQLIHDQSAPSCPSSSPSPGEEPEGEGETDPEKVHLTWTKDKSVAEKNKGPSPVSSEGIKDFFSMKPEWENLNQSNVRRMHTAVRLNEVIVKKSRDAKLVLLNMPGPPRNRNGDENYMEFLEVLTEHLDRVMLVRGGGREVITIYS
Method: Cell Culture and biotinylation. HEK-293 cells were purchased from ATCC (CRL-1573) and transfected with human KCC2 and GFP expression plasmids using Lipofectamine 2000. Cells were utilized for experimentation 48-72 h following transfection. Cells were biotinylated at 4° C. using NHS-Biotin. Following lysis and purification on immobilized avidin beads, cell surface and total fractions were subject to immunoblotting as outlined previously (Conway et al., 2017, supra).
The reliability of the biotinylation procedure was assessed via immunoblotting with antibodies against the cytosolic protein actin. Actin was present in the total lysates but was absent from the surface fractions (FIG. 2C).

hippocampal neurons = assay: whole cell patch-clamp recording of EGABA with imposed Cl− load in hippocampal neurons; format: cell-based, Sprague Dawley; conditions: incubated 1 h, 32 mM Cl− load, 5 min after break-in, controls −47.4±2.3
Method: Neuronal Cultures. Hippocampal neurons were prepared from Sprague Dawley E18 embryos and plated at 450,000 per dish and maintained at 37° C. in a humidified 5% CO2 incubator for 10-25 days before experimentation (Lee et al., Nat. Neurosci. 14, 736-743 (2011)).
Neuronal Patch clamp assays. Neuronal cell culture recordings were performed in bath saline at 34° C. For gramicidin perforated-patch experiments, pipettes contained (in mM): 140 KCl and 10 HEPES, pH 7.4 KOH. For whole-cell experiments, pipettes contained (in mM): 115 K-meth-SO4, 30 KCl, 2 Mg-ATP, 4 Na-ATP, 0.4 Na-GTP, and 10 HEPES, pH 7.4 KOH. Bath saline contained the following (in mM): 140 NaCl, 2.5 KCl, 2.5 CaCl2, 2.5 MgCl2, 10 HEPES, and 11 glucose, pH 7.4 NaOH (Kontou et al., 2021, supra). All compound solutions were applied to cells using a three-barreled 700 μm pipe positioned just above the cell (Warner Instruments). […] All voltages from whole-cell experiments were corrected offline using a calculated liquid junction potential value (13.6 mV) in Clampex (Molecular Devices). For gramicidin perforated-patch experiments, intracellular Cl^− values were back-calculated using measured EGABA values and the Nernst equation: […]
5 min after break-in, an initial EGABA value was determined and the effects of a subsequent 5 min incubation with VU0463271 was assessed.

[2] = set-up: species or system mice; conditions: in vivo
[3] = tested on: acute brain slices exposed to 0-Mg; assay: late recurrent discharges in acute brain slices exposed to 0-Mg

C[C@@H]1CN(c2nc3c(c(Nc4ccc(C5CCCCC5)cc4)n2)COC3)CCO1 [Compound A, (R)—N-(4-cyclohexylphenyl)-2-(2-methylmorpholino)-5,7-dihydrofuro[3,4-d]pyrimidin-4-amine]
activity of a panel of 144 protein kinases [1]: did not modify the activity | level of KCC2 on the plasma membrane (surface/total) (KCC2; 0.3 μM): 94.5±8.4 % of control | level of KCC2 on the plasma membrane (surface/total) (KCC2; 3 μM): 104.7±8.4 % of control | basal EGABA (hippocampal neurons): -59.3 ± 2.1 mV | gross effects on mouse behavior in the open field [2]: no gross effects on mouse behavior | total distance traveled in open field ([2]; mouse, sc, 50 mg/kg): 6134.2±235.3 cm | development of late recurrent discharges (LRDs) [3]: reduced
